In patent publication US20240051936A1, “ISOINDOLINONE COMPOUNDS” (Monte Rosa Therapeutics, Inc., priority 2021, published 2024):
Read-outs that look alike come from different tables or passages of the source.

Legend:
[1] = biological target: Full length wild-type cereblon CRBN (Homo sapiens (Human), UniProt Q96SW2); assay: Fluorescence polarization (FP) assay, cereblon binding
Procedure: Compound activity was monitored in a fluorescence polarization (FP) homogeneous assay using 1-[5-({2-[2-(2-{[2-(2,6-dioxopiperidin-3-yl)-1,3-dioxo-2,3-dihydro-1H-isoindol-4-yl]oxy}acetamido)ethoxy]ethyl}carbamoyl)pentyl]-3,3-dimethyl-2-[(1E,3E)-5-[(2E)-1,3,3-trimethyl-5-sulfo-2,3-dihydro-1H-indol-2-ylidene]penta-1,3-dien-1-yl]-3H-indol-1-ium-5-sulfonate as a fluorescent probe. Unless otherwise stated, all reagents were purchased from Sigma Aldrich. Enzymatic reactions were conducted in Perkin-Elmer Black 384 well ProxiPlate Plus (catalogue no. 6008269) in 10 sL total volume. Full length wild-type cereblon CRBN (80.0 nM, 10 sL) was incubated in assay buffer containing 20 mM HEPES (pH 8.0), […], 0.5 mM TCEP and 0.05% Tween 20 in the presence or absence of compound (300 nL). Inhibitors were stored as 10 mM DMSO stocks in an inert environment (low humidity, dark, low oxygen, room temperature) using the Storage Pod System.
Compounds and DMSO were dispensed using the Echo E5XX (Labcyte Inc. USA) to give concentrations from 300 to 0.937 or 3000 to 9.3 nM in a 12 data point curve. […] Following incubation at room temperature for 30 min, the assay was initiated by dispensing the probe to a final concentration of 5 nM (2.5 nL of a 20 μM stock) using the Echo E5XX. FP was measured after a period of 12 hours using a Pherastar plate reader (BMG Labtech, Germany) exciting at 590 nm and measuring the amount of parallel and perpendicular light at 675 nm. The FP signal was subsequently normalized to the no-compound control (i.e., DMSO). Analysis and IC50 values were derived using Dotmatics (Dotmatics UK) software.

GSPT1 = GSPT1 (Homo sapiens (Human), UniProt P15170+Q96SW2); assay: Immunofluorescence assay for GSPT1 degradation in CAL-Si cells; format: cell-based; details: CAL-Si cells
Procedure: The compounds were tested in an immunofluorescence assay for their activity to bind to degrade GSPT1. CAL-Si cells were purchased from DSMZ (cat. Number ACC302), sub-cultured in 90% Dulbecco's MEM (4.5 g/L glucose, Gibco 11965)+10% heat inactivated FBS (BioConcept, 2-01F136I) and incubated at 37° C., 5% CO2. For the assay, imaging microtiterplate Cell Carrier 96 Ultra (Perkin Elmer 6055302) were pre-coated with Fibronectin (Sigma F085, 30 μl at 0.2 μg/ml) in PBS (100 μl, Gibco 14190) for 45 min at room temperature, rinsed with PBS and CAL-Si cells (30K cells/well) were plated and let to adhere overnight. Cells were treated with compounds typically using a serial dilution ranging from 30 μM to 0.1 nM for 6 hours. Compounds were stored at 10 mM DMSO stocks. Vehicle (DMSO), positive (CC-885, 10 μM) and rescue controls (positive control plus 0.2 μM bortezomib) were also included at this stage. Cells were subsequently rinsed with PBS and fixed in 10% Formalin solution (50 μl, Sigma HT5011)) for 20 mins at room temperature. Following three consecutive PBS washes (100 μl), cells were permeabilized in 0.1% Triton X-100 in PBS (Sigma 93443, 50 μl) for 15 mins at room temperature. Following three further PBS washes, 50 μl blocking buffer (1% BSA, Sigma A4503, in PBS) was added for 45 min for signal-to-noise reduction.
Primary antibody (human GSPT1, Sigma HPA052488) was diluted in blocking buffer (dil.1/300, 35 μl/well) and incubated with the cells overnight at 4° C. After three PBS washes, Alexa-fluor 488 coupled secondary antibodies (Invitrogen, A32731, dil.1/1000), Alexa-fluor 647-Phalloïdin (Invitrogen, A22287, dil.1/200) and DAPI (Thermo, #62248, dil.1/1000) were diluted in blocking buffer and incubated with the samples for 2 hours at room temperature. After three final PBS washes, samples were conserved in 100 μl PBS in the dark, until measurement. Image acquisition was performed on the Operetta High-Content Imager (Perkin-Elmer). Fluorescence intensity of Alexa-Fluor 488 (GSPT1), Alexa-Fluor 647 (Actin) and DAPI (Nucleus) were measured. For the determination of GSPT1 DC50 values, a custom algorithm implemented in the PerkinElmer image analysis software Harmony-Acapella® was developed. After user-defined setting of adjustment parameters, the analysis was run identically without human intervention for all image fields. DAPI staining of the nuclei was used to determine the location of cells using standard nuclei detection modules. Segmentation artifacts were removed by threshold-based filters for area, roundness and intensity. The outline of the cells was determined analogously from the sum of the normalized, smoothed DAPI and Actin channel, starting from each nucleus. The Alexa-Fluor 488 (GSPT1) signal intensity in each cell was finally measured, in order to obtain a Mean intensity per cell. GSPT1 degradation (DC50) was calculated after normalization to controls and data import in CDD vault Database, using non-linear regression.

[2] = cereblon binding, bound, read-out: IC50 value
[3] = wild-type CRBN 80.0 nM, probe 5 nM, FP measured after 12 hours, read-out: rFP IC50
[4] = treated 6 hours, read-out: Code, activity for GSPT1 degradation (DC50)
[5] = compounds with code A, read-out: DC50 value code

GSPT1, sequence (P15170 whole entry): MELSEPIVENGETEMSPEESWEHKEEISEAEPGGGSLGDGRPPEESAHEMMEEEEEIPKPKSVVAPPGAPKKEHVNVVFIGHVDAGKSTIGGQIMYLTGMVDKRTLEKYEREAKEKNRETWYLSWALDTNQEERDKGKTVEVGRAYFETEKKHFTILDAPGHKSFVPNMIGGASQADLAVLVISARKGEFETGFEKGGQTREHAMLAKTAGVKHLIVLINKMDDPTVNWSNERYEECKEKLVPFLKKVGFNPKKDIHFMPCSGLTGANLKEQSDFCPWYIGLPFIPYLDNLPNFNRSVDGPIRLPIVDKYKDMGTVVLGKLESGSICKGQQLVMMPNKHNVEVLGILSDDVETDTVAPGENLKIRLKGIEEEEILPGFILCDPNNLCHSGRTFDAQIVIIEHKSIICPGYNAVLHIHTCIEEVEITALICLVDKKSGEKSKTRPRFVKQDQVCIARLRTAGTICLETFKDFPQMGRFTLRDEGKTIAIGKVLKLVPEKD
GSPT1, sequence (Q96SW2 whole entry): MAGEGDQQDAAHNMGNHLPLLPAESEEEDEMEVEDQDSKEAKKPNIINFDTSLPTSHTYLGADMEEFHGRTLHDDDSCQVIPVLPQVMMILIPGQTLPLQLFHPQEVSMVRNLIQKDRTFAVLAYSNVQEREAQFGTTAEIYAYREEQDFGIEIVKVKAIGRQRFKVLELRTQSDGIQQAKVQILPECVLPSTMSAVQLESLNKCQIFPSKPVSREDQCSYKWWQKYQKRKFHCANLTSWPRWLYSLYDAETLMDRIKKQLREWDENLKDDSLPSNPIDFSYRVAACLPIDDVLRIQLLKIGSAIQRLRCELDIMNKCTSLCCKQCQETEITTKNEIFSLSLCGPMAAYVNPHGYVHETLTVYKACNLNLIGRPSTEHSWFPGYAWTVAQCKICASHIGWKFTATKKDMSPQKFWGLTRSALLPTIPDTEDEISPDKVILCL
GSPT1, sequence (Q16531 whole entry partner): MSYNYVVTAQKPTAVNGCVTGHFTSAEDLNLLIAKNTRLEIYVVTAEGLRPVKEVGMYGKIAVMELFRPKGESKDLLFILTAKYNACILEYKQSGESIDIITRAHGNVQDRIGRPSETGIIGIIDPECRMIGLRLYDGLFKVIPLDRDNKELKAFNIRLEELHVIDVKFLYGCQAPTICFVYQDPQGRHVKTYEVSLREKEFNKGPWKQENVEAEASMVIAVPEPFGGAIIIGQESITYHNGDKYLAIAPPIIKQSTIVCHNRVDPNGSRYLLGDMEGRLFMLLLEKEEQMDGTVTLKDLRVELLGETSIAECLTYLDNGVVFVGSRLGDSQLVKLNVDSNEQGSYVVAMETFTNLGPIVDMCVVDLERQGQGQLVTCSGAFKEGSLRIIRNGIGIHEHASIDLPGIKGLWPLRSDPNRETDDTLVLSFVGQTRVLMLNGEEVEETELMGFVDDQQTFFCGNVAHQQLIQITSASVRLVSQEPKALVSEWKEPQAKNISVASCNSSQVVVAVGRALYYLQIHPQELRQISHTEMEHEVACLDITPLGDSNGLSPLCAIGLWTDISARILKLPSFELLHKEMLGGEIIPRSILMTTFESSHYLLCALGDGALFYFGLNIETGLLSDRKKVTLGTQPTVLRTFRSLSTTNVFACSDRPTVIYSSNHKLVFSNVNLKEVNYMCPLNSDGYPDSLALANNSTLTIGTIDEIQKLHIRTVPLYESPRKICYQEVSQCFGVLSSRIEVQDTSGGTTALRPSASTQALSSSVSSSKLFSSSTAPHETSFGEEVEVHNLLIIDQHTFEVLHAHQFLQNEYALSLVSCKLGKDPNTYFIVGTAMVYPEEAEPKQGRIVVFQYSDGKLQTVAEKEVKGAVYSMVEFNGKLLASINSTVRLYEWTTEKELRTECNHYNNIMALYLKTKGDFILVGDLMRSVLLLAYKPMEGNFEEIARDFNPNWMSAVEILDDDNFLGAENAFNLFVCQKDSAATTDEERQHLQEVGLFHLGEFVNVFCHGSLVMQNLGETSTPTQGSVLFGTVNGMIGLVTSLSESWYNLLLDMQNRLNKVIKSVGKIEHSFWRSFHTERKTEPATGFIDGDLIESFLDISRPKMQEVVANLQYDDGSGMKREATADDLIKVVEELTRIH
Full length wild-type cereblon CRBN, sequence (Q96SW2 whole entry): as the sequence (Q96SW2 whole entry) above

| SMILES | IC50 [1, 2] [nM] | IC50 [1, 3] [nM] | DC50 (GSPT1; [4]) [nM] | DC50 (GSPT1; [5]) [nM] |
| --- | --- | --- | --- | --- |
| O=C1CCC(N2Cc3c(F)cc(COC(=O)Nc4cc(-c5ccccc5)ccn4)cc3C2=O)C(=O)N1 (stereo not shown) [Compound 24, (2-(2,6-dioxopiperidin-3-yl)-7-fluoro-3-oxoisoindolin-5-yl)methyl(4-phenylpyridin-2-yl)carbamate] |  | > 1900 | 30 to 300 |  |
| COc1cc(COC(=O)Nc2cccc(OC(F)(F)F)c2)cc2c1CN(C1CCC(=O)NC1=O)C2=O (stereo not shown) [Compound 55, (2-(2,6-dioxopiperidin-3-yl)-7-methoxy-3-oxoisoindolin-5-yl) methyl (3-(trifluoromethoxy)phenyl)carbamate] |  | 600 to 1200 | < 30 | < 30 |
| CC1(c2ccc(NC(=O)OCc3cc(F)c4c(c3)C(=O)N(C3CCC(=O)NC3=O)C4)cc2)CC1 (stereo not shown) [Compound 13, (2-(2,6-dioxopiperidin-3-yl)-7-fluoro-3-oxoisoindolin-5-yl)methyl (4-(1-methylcyclopropyl)phenyl)carbamate] |  | > 1900 | 30 to 300 |  |
| O=C1CCC(N2Cc3c(F)cc(COC(=O)Nc4cccc(OC5CC5)c4)cc3C2=O)C(=O)N1 (stereo not shown) [Compound 21, (2-(2,6-dioxopiperidin-3-yl)-7-fluoro-3-oxoisoindolin-5-yl)methyl (3-cyclopropoxyphenyl)carbamate] | < 600 | 1200 to 1900 | < 30 | < 30 |
| COc1cc(COC(=O)Nc2cnc(-c3ccccc3)c(C)c2)cc2c1CN(C1CCC(=O)NC1=O)C2=O (stereo not shown) [Compound 59, (2-(2,6-dioxopiperidin-3-yl)-7-methoxy-3-oxoisoindolin-5-yl)methyl(5-methyl-6-phenylpyridin-3-yl)carbamate] | < 600 | ≤ 600 | < 30 | < 30 |
| COc1cc(COC(=O)Nc2cccc(OC(F)F)c2)cc2c1CN(C1CCC(=O)NC1=O)C2=O (stereo not shown) [Compound 53, (2-(2,6-dioxopiperidin-3-yl)-7-methoxy-3-oxoisoindolin-5-yl)methyl (3-(difluoromethoxy)phenyl)carbamate] | < 600 | ≤ 600 | < 30 | < 30 |
| COc1cc(COC(=O)Nc2ccc(C(C)(C)C)cc2)cc2c1CN(C1CCC(=O)NC1=O)C2=O (stereo not shown) [Compound 43, (2-(2,6-dioxopiperidin-3-yl)-7-methoxy-3-oxoisoindolin-5-yl)methyl (4-(tert-butyl)phenyl)carbamate] | < 600 | 600 to 1200 | < 30 | < 30 |
| COc1cc(COC(=O)Nc2ccc(-c3ccccc3)nc2)cc2c1CN(C1CCC(=O)NC1=O)C2=O (stereo not shown) [Compound 45, (2-(2,6-dioxopiperidin-3-yl)-7-methoxy-3-oxoisoindolin-5-yl)methyl(6-phenylpyridin-3-yl)carbamate] | < 600 | 600 to 1200 | < 30 | < 30 |
| COc1cc(COC(=O)Nc2cc(Cl)cc(OC(F)F)c2)cc2c1CN(C1CCC(=O)NC1=O)C2=O (stereo not shown) [Compound 49, (2-(2,6-dioxopiperidin-3-yl)-7-methoxy-3-oxoisoindolin-5-yl)methyl (3-chloro-5-(difluoromethoxy)phenyl)carbamate] | < 600 | 600 to 1200 | < 30 | < 30 |
| COc1cc(COC(=O)Nc2ccc(-c3ccccc3F)nc2)cc2c1CN(C1CCC(=O)NC1=O)C2=O (stereo not shown) [Compound 36, (2-(2,6-dioxopiperidin-3-yl)-7-methoxy-3-oxoisoindolin-5-yl)methyl (6-(2-fluorophenyl)pyridin-3-yl)carbamate] | < 600 | 1200 to 1900 | < 30 | < 30 |
| O=C1CCC(N2Cc3c(F)cc(COC(=O)Nc4cc(Cl)cc(Cl)c4)cc3C2=O)C(=O)N1 (stereo not shown) [Compound 28, (2-(2,6-dioxopiperidin-3-yl)-7-fluoro-3-oxoisoindolin-5-yl)methyl(3,5-dichlorophenyl)carbamate] |  | > 1900 | 30 to 300 |  |
| COc1cc(COC(=O)Nc2ccc(C3(C)CC3)cc2)cc2c1CN(C1CCC(=O)NC1=O)C2=O (stereo not shown) [Compound 40, (2-(2,6-dioxopiperidin-3-yl)-7-methoxy-3-oxoisoindolin-5-yl)methyl (4-(1-methylcyclopropyl)phenyl)carbamate] | < 600 | ≤ 600 | < 30 | < 30 |

Results, then the molecule that gave them:

| IC50 [1, 2] [nM] | IC50 [1, 3] [nM] | DC50 (GSPT1; [4]) [nM] | DC50 (GSPT1; [5]) [nM] | SMILES |
| --- | --- | --- | --- | --- |
| < 600 | 1200 to 1900 | 30 to 300 |  | O=C1CCC(N2Cc3c(F)cc(COC(=O)Nc4ccc(F)c(OC(F)F)c4)cc3C2=O)C(=O)N1 (stereo not shown) [Compound 7, (2-(2,6-dioxopiperidin-3-yl)-7-fluoro-3-oxoisoindolin-5-yl)methyl(3-(difluoromethoxy)-4-fluorophenyl)carbamate] |
|  | > 1900 | 30 to 300 |  | Cc1ccc(NC(=O)OCc2cc(Cl)c3c(c2)C(=O)N(C2CCC(=O)NC2=O)C3)cc1Cl (stereo not shown) [Compound 4, (7-chloro-2-(2,6-dioxopiperidin-3-yl)-3-oxoisoindolin-5-yl)methyl (3-chloro-4-methylphenyl)carbamate] |
| < 600 | 600 to 1200 | 30 to 300 |  | COc1cc(COC(=O)Nc2ccc(F)c(Cl)c2)cc2c1CN(C1CCC(=O)NC1=O)C2=O (stereo not shown) [Compound 51, (2-(2,6-dioxopiperidin-3-yl)-7-methoxy-3-oxoisoindolin-5-yl)methyl(3-chloro-4-fluorophenyl)carbamate] |
| < 600 | ≤ 600 | 30 to 300 |  | COc1cc(COC(=O)Nc2cc(C)cc(C)c2)cc2c1CN(C1CCC(=O)NC1=O)C2=O (stereo not shown) [Compound 52, (2-(2,6-dioxopiperidin-3-yl)-7-methoxy-3-oxoisoindolin-5-yl)methyl (3,5-dimethylphenyl)carbamate] |
|  | > 1900 | 30 to 300 |  | Cc1ccc(NC(=O)OCc2cc(C#N)c3c(c2)C(=O)N(C2CCC(=O)NC2=O)C3)cc1Cl (stereo not shown) [Compound 2, (7-cyano-2-(2,6-dioxopiperidin-3-yl)-3-oxoisoindolin-5-yl)methyl (3-chloro-4-methylphenyl)carbamate] |
| < 600 | ≤ 600 | < 30 | < 30 | COc1cc(COC(=O)Nc2cccc(C(C)(C)C)c2)cc2c1CN(C1CCC(=O)NC1=O)C2=O (stereo not shown) [Compound 54, (2-(2,6-dioxopiperidin-3-yl)-7-methoxy-3-oxoisoindolin-5-yl)methyl (3-(tert-butyl)phenyl)carbamate] |
|  | > 1900 | < 30 | < 30 | Cc1ccc(NC(=O)OCc2cc(F)c3c(c2)C(=O)N(C2CCC(=O)NC2=O)C3)cc1OC(F)F (stereo not shown) [Compound 35, (2-(2,6-dioxopiperidin-3-yl)-7-fluoro-3-oxoisoindolin-5-yl) methyl (3-(difluoromethoxy)-4-methylphenyl)carbamate] |
